# Data taken from US4476120A, “Thiolic derivatives of erythromycin having therapeutic activity, and pharmaceutical compositions containing them” (Sigma Tau Indistrie Farmaceutiche Riunites, p.A, priority 1982, dated 1984).
# What was measured:
# [1] = test system: Staph. albus SS 04; assay type: cell-based; settings: Brain Heart Infusion, estolate and RV11-RV15 previously hydrolized, unit assumed
# [2] = test system: Staph. aureus SS 08; assay type: cell-based; settings: Brain Heart Infusion, estolate and RV11-RV15 previously hydrolized, unit assumed
# [3] = test system: H. influentiae SS 02; assay type: cell-based; settings: Brain Heart Infusion, estolate and RV11-RV15 previously hydrolized, unit assumed
# [4] = test system: S. infantis SS 08; assay type: cell-based; settings: Brain Heart Infusion, estolate and RV11-RV15 previously hydrolized, unit assumed
# [5] = test system: E. cloacae SS 07; assay type: cell-based; settings: Brain Heart Infusion, estolate and RV11-RV15 previously hydrolized, unit assumed
# [6] = test system: Strept. haemolyticus SS 18; assay type: cell-based; settings: Brain Heart Infusion, estolate and RV11-RV15 previously hydrolized, unit assumed
# [7] = test system: Citrobacter SS 05; assay type: cell-based; settings: Brain Heart Infusion, estolate and RV11-RV15 previously hydrolized, unit assumed
# [8] = test system: Citrobacter SS 09; assay type: cell-based; settings: Brain Heart Infusion, estolate and RV11-RV15 previously hydrolized, unit assumed
# [9] = test system: Pr. mirabilis SS 09; assay type: cell-based; settings: Brain Heart Infusion, estolate and RV11-RV15 previously hydrolized, unit assumed
# [10] = test system: Staph. aureus SS 07; experiment: Experimental infection induced by Staph. aureus SS 07; assay type: in vivo, Swiss white mice; settings: Staph. aureus SS 07, mg/kg of erythromycin, survival after 7 days; for ED50 (reliability limits): 10080 min
# Method in brief: (§1)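 Swiss mice of 20 g infected parenterally with lethal amounts of Staph. aureus SS 07 or D. pneumoniae SS 23. Antibiotics were given at infection and again 6 and 24 h later. ED50 was derived from survival at 7 days.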
# [11] = test system: Sr. marcescens SS 03; assay type: cell-based; settings: Brain Heart Infusion, estolate and RV11-RV15 previously hydrolized, unit assumed
# [12] = test system: H. pertussis SS 03; assay type: cell-based; settings: Brain Heart Infusion, estolate and RV11-RV15 previously hydrolized, unit assumed
# [13] = test system: S. heidelberg SS 18; assay type: cell-based; settings: Brain Heart Infusion, estolate and RV11-RV15 previously hydrolized, unit assumed
# [14] = test system: Strept. faecalis SS 19; assay type: cell-based; settings: Brain Heart Infusion, estolate and RV11-RV15 previously hydrolized, unit assumed
# [15] = test system: B. cereus ATCC 11778; assay type: cell-based; settings: Brain Heart Infusion, estolate and RV11-RV15 previously hydrolized, unit assumed
# [16] = test system: B. subtilis SS 127; assay type: cell-based; settings: Brain Heart Infusion, estolate and RV11-RV15 previously hydrolized, unit assumed
# [17] = test system: Br. abortus SS 7; assay type: cell-based; settings: Brain Heart Infusion, estolate and RV11-RV15 previously hydrolized, unit assumed
# [18] = test system: D. pneumoniae SS 23; assay type: cell-based; settings: Brain Heart Infusion, estolate and RV11-RV15 previously hydrolized, unit assumed
# [19] = test system: E. coli SS 05; assay type: cell-based; settings: Brain Heart Infusion, estolate and RV11-RV15 previously hydrolized, unit assumed
# [20] = test system: E. coli SS 06; assay type: cell-based; settings: Brain Heart Infusion, estolate and RV11-RV15 previously hydrolized, unit assumed
# [21] = test system: Pr. vulgaris SS 10; assay type: cell-based; settings: Brain Heart Infusion, estolate and RV11-RV15 previously hydrolized, unit assumed
# [22] = test system: Staph. aureus SS 10; assay type: cell-based; settings: Brain Heart Infusion, estolate and RV11-RV15 previously hydrolized, unit assumed
# [23] = test system: E. aerogenes SS 011; assay type: cell-based; settings: Brain Heart Infusion, estolate and RV11-RV15 previously hydrolized, unit assumed
# [24] = test system: E. coli SS 04; assay type: cell-based; settings: Brain Heart Infusion, estolate and RV11-RV15 previously hydrolized, unit assumed
# [25] = test system: S. lutea ATCC 9341; assay type: cell-based; settings: Brain Heart Infusion, estolate and RV11-RV15 previously hydrolized, unit assumed
# [26] = test system: Strept. haemolyticus SS 17; assay type: cell-based; settings: Brain Heart Infusion, estolate and RV11-RV15 previously hydrolized, unit assumed
# [27] = test system: Staph. albus SS 03; assay type: cell-based; settings: Brain Heart Infusion, estolate and RV11-RV15 previously hydrolized, unit assumed
# [28] = test system: Cl. tetani SS 17; assay type: cell-based; settings: Brain Heart Infusion, estolate and RV11-RV15 previously hydrolized, unit assumed
# [29] = test system: D. pneumoniae SS 23; experiment: Experimental infection induced by D. pneumoniae SS 23; assay type: in vivo, Swiss white mice; settings: D. pneumoniae SS 23, mg/kg of erythromycin, survival after 7 days; for ED50 (reliability limits): 10080 min
# Method in brief: as §1
# [30] = test system: Staph. aureus SS 09; assay type: cell-based; settings: Brain Heart Infusion, estolate and RV11-RV15 previously hydrolized, unit assumed
# [31] = test system: Ps. aeruginosa SS 10; assay type: cell-based; settings: Brain Heart Infusion, estolate and RV11-RV15 previously hydrolized, unit assumed
# [32] = test system: Br. melitensis SS 19; assay type: cell-based; settings: unit assumed
# [33] = test system: C. diphtheriae SS 19; assay type: cell-based; settings: Brain Heart Infusion, estolate and RV11-RV15 previously hydrolized, unit assumed
# [34] = Histological examination of bronchi after SO2 inhalation; assay type: in vivo, Sprague Dawley male rats; settings: i.m., 250 mg/kg; for histological appearance of non obstructed bronchi: free non obstructed
# [35] = test system: B. anthranis SS 08; assay type: cell-based; settings: Brain Heart Infusion, estolate and RV11-RV15 previously hydrolized, unit assumed
# [36] = test system: Kl. aerogenes SS 71; assay type: cell-based; settings: Brain Heart Infusion, estolate and RV11-RV15 previously hydrolized, unit assumed
# [37] = test system: C. albicans SS 04; assay type: cell-based; settings: Brain Heart Infusion, estolate and RV11-RV15 previously hydrolized, unit assumed
# [38] = Acute toxicity; assay type: in vivo; settings: mortality 10 days after treatment, mice
# Procedure: The acute toxicity was assessed in Swiss white mice by oral and intravenous route. The LD50 values have been calculated by the methods of Probits, starting from the mortality recorded 10 days after the treatment.
# [39] = test system: N. meningitidis SS 04; assay type: cell-based; settings: Brain Heart Infusion, estolate and RV11-RV15 previously hydrolized, unit assumed
# [40] = test system: E. coli SS 07; assay type: cell-based; settings: Brain Heart Infusion, estolate and RV11-RV15 previously hydrolized, unit assumed
# [41] = test system: H. tubercolosis SS 03; assay type: cell-based; settings: Brain Heart Infusion, estolate and RV11-RV15 previously hydrolized, unit assumed
# Source text: (§2) In the following table I the MIC/ml values are indicated corresponding to the lowest concentration capable of inducing a complete inhibition of the bacterial development.
# [42] = test system: Kl. pneumoniae SS 04; assay type: cell-based; settings: Brain Heart Infusion, estolate and RV11-RV15 previously hydrolized, unit assumed
# Source text: as §2
# [43] = test system: N. gonorreae SS 27; assay type: cell-based; settings: Brain Heart Infusion, estolate and RV11-RV15 previously hydrolized, unit assumed
smiles,measurement,setting,value
"CC[C@H]1OC(=O)[C@H](C)[C@@H](O[C@H]2C[C@@](C)(OC)[C@@H](O)[C@H](C)O2)[C@H](C)[C@@H](O[C@@H]2O[C@H](C)C[C@H](N(C)C)[C@H]2O)[C@](C)(O)C[C@@H](C)C(=O)[C@H](C)[C@@H](O)[C@]1(C)O [RV05, erythromycin-N-acetylcysteinate]",MIC,[1],0.025 µg/mL
same,MIC,[2],0.025 µg/mL
same,MIC,[3],0.8 µg/mL
same,MIC,[4],100 µg/mL
same,MIC,[5],> 200 µg/mL
same,MIC,[6],0.8 µg/mL
same,MIC,[7],> 200 µg/mL
same,MIC,[8],> 200 µg/mL
same,MIC,[9],> 200 µg/mL
same,ED50 (reliability limits),[10]; os,2.08 (2.38-1.83) mg/kg
same,ED50 (reliability limits),[10]; s.c.,1.33 (1.61-1.10) mg/kg
same,MIC,[11],200 µg/mL
same,MIC,[12],0.2 µg/mL
same,MIC,[13],100 µg/mL
same,MIC,[14],0.2 µg/mL
same,MIC,[15],0.4 µg/mL
same,MIC,[16],0.01 µg/mL
same,MIC,[17],12 µg/mL
same,MIC,[18],0.05 µg/mL
same,MIC,[19],25 µg/mL
same,MIC,[20],100 µg/mL
same,MIC,[21],> 200 µg/mL
same,MIC,[22],0.025 µg/mL
same,MIC,[23],100 µg/mL
same,MIC,[24],100 µg/mL
same,MIC,[25],0.01 µg/mL
same,MIC,[26],3 µg/mL
same,MIC,[27],0.05 µg/mL
same,MIC,[28],0.2 µg/mL
same,ED50 (reliability limits),[29]; os,119.31 (150.05-94.87) mg/kg
same,ED50 (reliability limits),[29]; s.c.,50.22 (62.33-40.46) mg/kg
same,MIC,[30],0.1 µg/mL
same,MIC,[31],200 µg/mL
same,MIC,[32],3 µg/mL
same,MIC,[33],0.05 µg/mL
same,histological appearance of non obstructed bronchi,[34],practically normal appearance
same,histological appearance of obstructed bronchial tract,[34],an appearance like that of the control animals
same,MIC,[35],0.4 µg/mL
same,MIC,[36],50 µg/mL
same,MIC,[37],100 µg/mL
same,LD50 (reliability limits),"[38]; i.v., 14400 min",472.84 (529.08-442.57) mg.kg
same,LD50 (reliability limits),[38]; os,> 3000 mg·kg
same,MIC,[39],0.8 µg/mL
same,MIC,[40],25 µg/mL
same,MIC,[41],50 µg/mL
same,MIC,[42],50 µg/mL
same,MIC,[43],0.8 µg/mL
"CC[C@H]1OC(=O)[C@H](C)[C@@H](O[C@H]2C[C@@](C)(OC)[C@@H](O)[C@H](C)O2)[C@H](C)[C@@H](O[C@@H]2O[C@H](C)C[C@H](N(C)C)[C@H]2O)[C@](C)(O)C[C@@H](C)C(=O)[C@H](C)[C@@H](O)[C@]1(C)O [RV01, erythromycin alpha-mercaptosuccinate]",MIC,[1],0.05 µg/mL
same,MIC,[2],0.025 µg/mL
same,MIC,[3],1.5 µg/mL
same,MIC,[4],100 µg/mL
same,MIC,[5],> 200 µg/mL
same,MIC,[6],1.5 µg/mL
same,MIC,[7],> 200 µg/mL
same,MIC,[8],> 200 µg/mL
same,MIC,[9],> 200 µg/mL
same,ED50,"[10]; Staphylococcus aureus, SS07, in Mus musculus, sc, 168 h, s.c., read-out: ED50 (reliability limits)",0.95 mg/kg
same,ED50 (reliability limits),[10]; os,2.36 (2.68-2.08) mg/kg
same,MIC,[11],200 µg/mL
same,MIC,[12],0.4 µg/mL
same,MIC,[13],100 µg/mL
same,MIC,[14],0.1 µg/mL
same,MIC,[15],0.4 µg/mL
same,MIC,[16],0.01 µg/mL
same,MIC,[17],6 µg/mL
same,MIC,[18],0.05 µg/mL
same,MIC,[19],50 µg/mL
same,MIC,[20],100 µg/mL
same,MIC,[21],> 200 µg/mL
same,MIC,[22],0.05 µg/mL
same,MIC,[23],50 µg/mL
same,MIC,[24],50 µg/mL
same,MIC,[25],0.01 µg/mL
same,MIC,[26],3 µg/mL
same,MIC,[27],0.1 µg/mL
same,MIC,[28],0.2 µg/mL
same,ED50,"[29]; Streptococcus pneumoniae, SS23, in Mus musculus, sc, 168 h, s.c., read-out: ED50 (reliability limits)",52.7 mg/kg
same,ED50 (reliability limits),[29]; os,108.98 (137.60-86.32) mg/kg
same,MIC,[30],0.1 µg/mL
same,MIC,[31],200 µg/mL
same,MIC,[32],3 µg/mL
same,MIC,[33],0.025 µg/mL
same,histological appearance of non obstructed bronchi,[34],practically normal appearance
same,histological appearance of obstructed bronchial tract,[34],an appearance like that of the control animals
same,MIC,[35],0.4 µg/mL
same,MIC,[36],100 µg/mL
same,MIC,[37],> 200 µg/mL
same,LD50 (reliability limits),"[38]; i.v., 14400 min",458.49 (518.06-405.77) mg.kg
same,LD50 (reliability limits),[38]; os,> 3000 mg·kg
same,MIC,[39],0.8 µg/mL
same,MIC,[40],25 µg/mL
same,MIC,[41],50 µg/mL
same,MIC,[42],100 µg/mL
same,MIC,[43],0.8 µg/mL
